Source: publication PMC11864979, “First-in-class ultralong-target-residence-time p38α inhibitors as a mitosis-targeted therapy for colorectal cancer” (Nature Cancer, 2025)
Like-named read-outs stand apart in the source and are kept apart here.

Columns and labels:
Assay in all cases: selectivity profiling in a panel of 340 wild-type kinases (Reaction Biology Europe)
Assay type in all cases: binding
340 wild-type kinases [1] = target: T1, 340 wild-type kinases (Homo sapiens, UniProt Q9Y4K4)
T1 construct: purchased Reaction Biology Europe
T1 sequence (Q9Y4K4 whole entry): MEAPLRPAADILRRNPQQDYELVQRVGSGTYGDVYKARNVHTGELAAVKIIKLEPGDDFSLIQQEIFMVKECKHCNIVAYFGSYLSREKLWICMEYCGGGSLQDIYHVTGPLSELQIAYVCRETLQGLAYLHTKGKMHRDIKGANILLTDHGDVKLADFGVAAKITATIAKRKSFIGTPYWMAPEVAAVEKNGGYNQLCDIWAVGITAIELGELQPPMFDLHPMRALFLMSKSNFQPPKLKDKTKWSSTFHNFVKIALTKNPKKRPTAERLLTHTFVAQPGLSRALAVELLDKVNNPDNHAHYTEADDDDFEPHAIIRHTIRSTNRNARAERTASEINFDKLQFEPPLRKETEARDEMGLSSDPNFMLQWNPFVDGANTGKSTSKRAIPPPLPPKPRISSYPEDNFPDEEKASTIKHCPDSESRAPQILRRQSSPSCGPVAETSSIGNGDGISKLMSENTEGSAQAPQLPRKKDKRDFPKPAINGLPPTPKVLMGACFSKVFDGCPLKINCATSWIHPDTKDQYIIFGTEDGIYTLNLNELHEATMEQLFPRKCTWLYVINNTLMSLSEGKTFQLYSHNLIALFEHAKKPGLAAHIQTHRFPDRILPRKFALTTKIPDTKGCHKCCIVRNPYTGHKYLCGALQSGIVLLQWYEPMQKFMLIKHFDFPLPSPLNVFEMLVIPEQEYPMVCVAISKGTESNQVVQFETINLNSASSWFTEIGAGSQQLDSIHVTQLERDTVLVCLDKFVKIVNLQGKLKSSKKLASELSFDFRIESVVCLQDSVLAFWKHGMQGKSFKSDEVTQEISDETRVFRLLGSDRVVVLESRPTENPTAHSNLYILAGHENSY

340 wild-type kinases [2] = target: T2, 340 wild-type kinases (Homo sapiens, UniProt Q15375)
T2 construct: purchased Reaction Biology Europe
T2 sequence (Q15375 28-998): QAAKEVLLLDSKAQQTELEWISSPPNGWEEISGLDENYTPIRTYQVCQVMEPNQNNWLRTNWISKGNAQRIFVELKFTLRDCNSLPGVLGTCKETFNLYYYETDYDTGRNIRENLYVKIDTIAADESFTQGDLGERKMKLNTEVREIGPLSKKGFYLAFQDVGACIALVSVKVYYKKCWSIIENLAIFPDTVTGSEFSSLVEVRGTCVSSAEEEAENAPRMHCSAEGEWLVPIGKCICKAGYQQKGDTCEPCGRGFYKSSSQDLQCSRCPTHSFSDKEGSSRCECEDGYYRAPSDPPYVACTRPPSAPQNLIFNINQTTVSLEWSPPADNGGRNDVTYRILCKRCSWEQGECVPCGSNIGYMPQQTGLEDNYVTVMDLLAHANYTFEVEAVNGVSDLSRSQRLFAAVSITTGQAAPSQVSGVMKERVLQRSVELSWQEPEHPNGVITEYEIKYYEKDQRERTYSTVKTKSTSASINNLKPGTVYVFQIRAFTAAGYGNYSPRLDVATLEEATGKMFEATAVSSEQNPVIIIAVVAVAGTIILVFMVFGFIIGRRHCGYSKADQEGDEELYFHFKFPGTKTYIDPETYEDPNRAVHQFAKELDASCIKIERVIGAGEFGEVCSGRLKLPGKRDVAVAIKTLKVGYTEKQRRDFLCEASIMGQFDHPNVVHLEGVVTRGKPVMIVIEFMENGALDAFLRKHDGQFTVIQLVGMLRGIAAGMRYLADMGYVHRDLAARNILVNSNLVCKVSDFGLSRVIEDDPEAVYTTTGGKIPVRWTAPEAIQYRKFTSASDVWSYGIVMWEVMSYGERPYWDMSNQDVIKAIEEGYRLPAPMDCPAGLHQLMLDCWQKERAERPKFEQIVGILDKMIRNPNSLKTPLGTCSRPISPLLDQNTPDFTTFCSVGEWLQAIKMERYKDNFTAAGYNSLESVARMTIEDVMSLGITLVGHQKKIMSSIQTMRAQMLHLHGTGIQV

340 wild-type kinases [3] = target: T3, 340 wild-type kinases (Homo sapiens, UniProt P52564, S207D/T211D)
T3 construct: purchased Reaction Biology Europe
T3 sequence (P52564 1-334 S207D/T211D): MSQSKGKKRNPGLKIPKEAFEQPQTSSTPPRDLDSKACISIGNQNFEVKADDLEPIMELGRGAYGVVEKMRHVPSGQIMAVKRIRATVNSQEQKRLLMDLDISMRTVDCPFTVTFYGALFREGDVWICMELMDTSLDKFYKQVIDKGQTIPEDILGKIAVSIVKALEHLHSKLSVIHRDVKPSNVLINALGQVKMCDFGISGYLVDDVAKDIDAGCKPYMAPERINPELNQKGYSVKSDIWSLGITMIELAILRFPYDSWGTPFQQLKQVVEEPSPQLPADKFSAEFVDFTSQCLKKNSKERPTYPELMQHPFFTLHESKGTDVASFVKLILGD

340 wild-type kinases [4] = target: T4, 340 wild-type kinases (Homo sapiens, UniProt O00418)
T4 construct: purchased Reaction Biology Europe
T4 sequence (O00418 1-725): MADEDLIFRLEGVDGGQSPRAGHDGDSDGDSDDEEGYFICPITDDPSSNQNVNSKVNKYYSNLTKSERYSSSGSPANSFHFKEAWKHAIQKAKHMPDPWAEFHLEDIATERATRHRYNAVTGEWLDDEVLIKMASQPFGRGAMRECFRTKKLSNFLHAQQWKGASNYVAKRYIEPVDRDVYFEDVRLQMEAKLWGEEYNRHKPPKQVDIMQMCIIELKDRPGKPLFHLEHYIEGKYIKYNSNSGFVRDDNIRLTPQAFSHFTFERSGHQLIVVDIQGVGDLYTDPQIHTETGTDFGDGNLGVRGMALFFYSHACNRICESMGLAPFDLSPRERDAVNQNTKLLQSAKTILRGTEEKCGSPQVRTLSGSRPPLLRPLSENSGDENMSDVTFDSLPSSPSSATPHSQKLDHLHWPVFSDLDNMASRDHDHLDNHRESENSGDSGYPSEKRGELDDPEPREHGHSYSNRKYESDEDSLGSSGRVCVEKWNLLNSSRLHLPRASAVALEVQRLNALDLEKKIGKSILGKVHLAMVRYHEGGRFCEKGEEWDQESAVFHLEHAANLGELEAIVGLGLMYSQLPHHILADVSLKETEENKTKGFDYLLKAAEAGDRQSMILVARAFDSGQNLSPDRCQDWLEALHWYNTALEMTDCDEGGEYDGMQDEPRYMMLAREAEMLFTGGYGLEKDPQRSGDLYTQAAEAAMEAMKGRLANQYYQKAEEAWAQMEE

340 wild-type kinases [5] = target: T5, 340 wild-type kinases (Homo sapiens, UniProt Q8IW41)
T5 construct: purchased Reaction Biology Europe
T5 sequence (Q8IW41 1-473): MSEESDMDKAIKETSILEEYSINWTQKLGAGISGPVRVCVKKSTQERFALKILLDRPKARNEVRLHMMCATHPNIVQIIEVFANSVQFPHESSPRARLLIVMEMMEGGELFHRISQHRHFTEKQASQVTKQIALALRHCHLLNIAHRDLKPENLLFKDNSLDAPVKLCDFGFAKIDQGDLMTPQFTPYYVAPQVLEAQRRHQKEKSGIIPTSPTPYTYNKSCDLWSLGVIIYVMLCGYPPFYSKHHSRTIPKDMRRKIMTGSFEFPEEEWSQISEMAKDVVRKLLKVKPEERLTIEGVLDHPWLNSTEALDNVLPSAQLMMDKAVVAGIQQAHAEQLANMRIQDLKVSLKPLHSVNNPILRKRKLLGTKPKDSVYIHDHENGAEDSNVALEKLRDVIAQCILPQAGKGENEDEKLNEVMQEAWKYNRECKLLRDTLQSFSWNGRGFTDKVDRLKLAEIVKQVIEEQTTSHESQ

340 wild-type kinases [6] = target: T6, 340 wild-type kinases (Homo sapiens, UniProt P49759)
T6 construct: purchased Reaction Biology Europe
T6 sequence (P49759 whole entry): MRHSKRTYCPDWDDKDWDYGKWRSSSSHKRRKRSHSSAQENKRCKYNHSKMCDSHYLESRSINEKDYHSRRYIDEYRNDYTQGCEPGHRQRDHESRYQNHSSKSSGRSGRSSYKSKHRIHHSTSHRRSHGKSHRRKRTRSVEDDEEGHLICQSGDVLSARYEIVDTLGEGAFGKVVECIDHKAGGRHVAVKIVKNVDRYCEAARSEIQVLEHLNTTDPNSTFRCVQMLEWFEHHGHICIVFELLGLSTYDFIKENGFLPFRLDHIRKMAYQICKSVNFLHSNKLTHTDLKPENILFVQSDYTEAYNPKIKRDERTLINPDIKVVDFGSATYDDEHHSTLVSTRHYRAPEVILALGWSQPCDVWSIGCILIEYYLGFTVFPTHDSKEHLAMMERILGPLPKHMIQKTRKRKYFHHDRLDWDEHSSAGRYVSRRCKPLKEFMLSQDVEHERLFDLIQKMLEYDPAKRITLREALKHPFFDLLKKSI

340 wild-type kinases [7] = target: T7, 340 wild-type kinases (Homo sapiens, UniProt Q96SB4)
T7 construct: purchased Reaction Biology Europe
T7 sequence (Q96SB4 whole entry): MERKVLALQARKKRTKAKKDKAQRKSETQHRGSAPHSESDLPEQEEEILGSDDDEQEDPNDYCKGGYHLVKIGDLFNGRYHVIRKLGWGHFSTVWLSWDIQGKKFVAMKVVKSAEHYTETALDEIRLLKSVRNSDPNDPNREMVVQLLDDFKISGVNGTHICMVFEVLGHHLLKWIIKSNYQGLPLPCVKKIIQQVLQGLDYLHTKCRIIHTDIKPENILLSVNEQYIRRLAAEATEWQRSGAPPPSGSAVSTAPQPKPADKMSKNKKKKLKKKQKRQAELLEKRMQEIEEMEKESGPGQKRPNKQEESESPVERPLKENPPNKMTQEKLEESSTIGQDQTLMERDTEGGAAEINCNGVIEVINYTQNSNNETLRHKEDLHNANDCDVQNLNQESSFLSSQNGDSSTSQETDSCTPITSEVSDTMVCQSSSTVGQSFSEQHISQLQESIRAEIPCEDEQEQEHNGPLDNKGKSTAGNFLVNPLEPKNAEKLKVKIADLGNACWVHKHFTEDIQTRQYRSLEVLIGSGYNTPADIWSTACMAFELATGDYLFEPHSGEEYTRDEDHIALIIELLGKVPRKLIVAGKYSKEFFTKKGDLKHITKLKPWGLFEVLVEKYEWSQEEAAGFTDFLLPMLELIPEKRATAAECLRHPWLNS

340 wild-type kinases [8] = target: T8, 340 wild-type kinases (Homo sapiens, UniProt Q9UEE5)
T8 construct: purchased Reaction Biology Europe
T8 sequence (Q9UEE5 1-414): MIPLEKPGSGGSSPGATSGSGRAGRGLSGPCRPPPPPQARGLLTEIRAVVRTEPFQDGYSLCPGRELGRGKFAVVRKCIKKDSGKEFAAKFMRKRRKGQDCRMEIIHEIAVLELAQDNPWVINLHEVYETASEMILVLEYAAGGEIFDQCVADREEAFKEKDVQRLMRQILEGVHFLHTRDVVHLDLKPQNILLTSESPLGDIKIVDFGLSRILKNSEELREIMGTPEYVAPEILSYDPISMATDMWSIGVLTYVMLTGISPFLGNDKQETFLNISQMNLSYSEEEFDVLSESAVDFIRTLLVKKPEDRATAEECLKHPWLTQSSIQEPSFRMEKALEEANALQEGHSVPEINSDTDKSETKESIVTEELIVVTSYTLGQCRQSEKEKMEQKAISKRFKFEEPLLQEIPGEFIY

SMILES: CNC(=O)c1ccc2c(c1)C(=O)c1ccc(Nc3ccc(F)c(NC(=O)C4CC4)c3)cc1CC2 [Compound 2015]
- remaining activity at 0.2 µM (340 wild-type kinases [1]; 0.2 µM 2015, read-out: MAP4K5 residual activity): 101%
- remaining activity at 1 µM (340 wild-type kinases [1]; 1 µM 2015, read-out: MAP4K5 residual activity): 91.4%
- remaining activity at 0.2 µM (340 wild-type kinases [1]; MAP4K5, 0.2 µM, read-out: residual activity): 101%
- remaining activity at 1 µM (340 wild-type kinases [1]; MAP4K5, 1 µM, read-out: residual activity): 91.4%
- remaining activity at 0.2 µM (340 wild-type kinases [2]; 0.2 µM 2015, read-out: EPHA7 residual activity): 126%
- remaining activity at 1 µM (340 wild-type kinases [2]; 1 µM 2015, read-out: EPHA7 residual activity): 106%
- remaining activity at 0.2 µM (340 wild-type kinases [2]; EPHA7, 0.2 µM, read-out: residual activity): 126%
- remaining activity at 1 µM (340 wild-type kinases [2]; EPHA7, 1 µM, read-out: residual activity): 106%
- remaining activity at 0.2 µM (340 wild-type kinases [3]; 0.2 µM 2015, read-out: MKK6 SDTD residual activity): 83.9%
- remaining activity at 1 µM (340 wild-type kinases [3]; 1 µM 2015, read-out: MKK6 SDTD residual activity): 111%
- remaining activity at 0.2 µM (340 wild-type kinases [3]; MKK6 SDTD, 0.2 µM, read-out: residual activity): 83.9%
- remaining activity at 1 µM (340 wild-type kinases [3]; MKK6 SDTD, 1 µM, read-out: residual activity): 111%
- remaining activity at 0.2 µM (340 wild-type kinases [4]; 0.2 µM 2015, read-out: EEF2K residual activity): 106%
- remaining activity at 1 µM (340 wild-type kinases [4]; 1 µM 2015, read-out: EEF2K residual activity): 98.4%
- remaining activity at 0.2 µM (340 wild-type kinases [4]; EEF2K, 0.2 µM, read-out: residual activity): 106%
- remaining activity at 1 µM (340 wild-type kinases [4]; EEF2K, 1 µM, read-out: residual activity): 98.4%
- remaining activity at 0.2 µM (340 wild-type kinases [5]; 0.2 µM 2015, read-out: MAPKAPK5 residual activity): 123%
- remaining activity at 1 µM (340 wild-type kinases [5]; 1 µM 2015, read-out: MAPKAPK5 residual activity): 109%
- remaining activity at 0.2 µM (340 wild-type kinases [5]; MAPKAPK5, 0.2 µM, read-out: residual activity): 123%
- remaining activity at 1 µM (340 wild-type kinases [5]; MAPKAPK5, 1 µM, read-out: residual activity): 109%
- remaining activity at 0.2 µM (340 wild-type kinases [6]; 0.2 µM 2015, read-out: CLK1 residual activity): 98.6%
- remaining activity at 1 µM (340 wild-type kinases [6]; 1 µM 2015, read-out: CLK1 residual activity): 93%
- remaining activity at 0.2 µM (340 wild-type kinases [6]; CLK1, 0.2 µM, read-out: residual activity): 98.6%
- remaining activity at 1 µM (340 wild-type kinases [6]; CLK1, 1 µM, read-out: residual activity): 93%
- remaining activity at 0.2 µM (340 wild-type kinases [7]; 0.2 µM 2015, read-out: SRPK1 residual activity): 108%
- remaining activity at 1 µM (340 wild-type kinases [7]; 1 µM 2015, read-out: SRPK1 residual activity): 105%
- remaining activity at 0.2 µM (340 wild-type kinases [7]; SRPK1, 0.2 µM, read-out: residual activity): 108%
- remaining activity at 1 µM (340 wild-type kinases [7]; SRPK1, 1 µM, read-out: residual activity): 105%
- remaining activity at 0.2 µM (340 wild-type kinases [8]; 0.2 µM 2015, read-out: STK17A residual activity): 109%
- remaining activity at 1 µM (340 wild-type kinases [8]; 1 µM 2015, read-out: STK17A residual activity): 97.8%
- remaining activity at 0.2 µM (340 wild-type kinases [8]; STK17A, 0.2 µM, read-out: residual activity): 109%
- remaining activity at 1 µM (340 wild-type kinases [8]; STK17A, 1 µM, read-out: residual activity): 97.8%
